These are literature values, as cited in patent US20120172427A1, “(Z)-2-CYANO-3-HYDROXY-BUT-2-ENOIC ACID-(4'-TRIFLUOROMETHYLPHENYL)-AMIDE TABLET FORMULATIONS WITH IMPROVED STABILITY” (SANOFI, priority 2009, published 2012).

The test system of series [1] is immune cells and cell lines. To be noted: wide variety of immune cells and cell lines; literature.
The target in series [2] is dihydroorotate dehydrogenase (Homo sapiens, UniProt Q02127). To be noted: Bruneau et al., Biochem. J. 1998.
Chain of dihydroorotate dehydrogenase (Q02127 whole entry): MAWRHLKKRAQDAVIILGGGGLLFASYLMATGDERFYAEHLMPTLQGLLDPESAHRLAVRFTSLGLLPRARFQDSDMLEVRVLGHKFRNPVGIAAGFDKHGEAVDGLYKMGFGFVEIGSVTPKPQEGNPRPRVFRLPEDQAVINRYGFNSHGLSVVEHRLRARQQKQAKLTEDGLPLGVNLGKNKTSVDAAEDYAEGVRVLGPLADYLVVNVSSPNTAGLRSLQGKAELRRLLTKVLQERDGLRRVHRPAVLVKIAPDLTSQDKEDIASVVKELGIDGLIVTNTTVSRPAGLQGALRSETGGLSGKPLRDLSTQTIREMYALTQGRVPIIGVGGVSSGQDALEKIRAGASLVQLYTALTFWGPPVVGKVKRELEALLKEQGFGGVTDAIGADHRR

Take `C/C(O)=C(\C#N)C(=O)Nc1ccc(C(F)(F)F)cc1` [Teriflunomide, (Z)-2-cyano-3-hydroxy-but-2-enoic acid-(4′-trifluoromethylphenyl)-amide]: the antiproliferative effects entry in series [1] is listed as “antiproliferative effects”. Further, the “inhibition of dihydroorotate dehydrogenase” value in series [2] was “inhibits”.
